Experimental data from patent publication US7879881B2, “Piperidinyl compounds that selectively bind integrins” (Janssen Pharmaceutica NV, priority 2002, dated 2011).
Like-named read-outs stand apart in the source and are kept apart here.

Legend:
human purified αVβ5 = molecular target: T1, human purified αVβ5 (Homo sapiens, UniProt P06756+P18084); assay: In Vitro Solid Phase Purified αcβ5 Binding Assay (vitronectin/αVβ5); settings: vitronectin binding to immobilized purified human αVβ5, mean ± spread
T1 construct: purchased Chemicon International, Inc
Protocol: (§1) Human αvβ3 (Chemicon International Inc., Temecula, Calif.), at a concentration of 1 μg/ml dissolved in Tris buffer (20 mM Tris, 1 mM CaCl2, 1 mM MgCl2, 10 μM MnCl2, 150 mM NaCl), was immobilized on Immulon 96 well plates (Dynex Technologies, Chantilly, Va.) overnight at 4° C. Plates were washed and treated with blocking buffer (3% BSA in Tris buffer) for 2 h at 37° C. Plates were then rinsed 2 times with assay buffer comprised of Tris buffer. Synthesized compounds were added to wells in duplicate immediately prior to the addition of 2 nM vitronectin (Sigma, St. Louis, Mo.). Following a 3 hour incubation at 37° C., plates were washed 5 times in assay buffer. An anti-human vitronectin IgG rabbit polyclonal antibody (Calbiochem, San Diego, Calif.) was added (1:2000) and plates were incubated for 1 hour at room temperature. VectaStain ABC peroxidase kit reagents (Vector Laboratories, Burlingame, Calif.) employing a biotin labeled anti-rabbit IgG, were utilized for detection of bound antibody. Plates were read at 490 nm on a Molecular Devices (Sunnyvale, Calif.) microplate reader.
In Vitro Solid Phase Purified αcβ5 Binding Assay
All other aspects of the assay including buffers, reagents and incubation times remain unchanged.

Human αvβ3 = molecular target: T2, Human αvβ3 (Homo sapiens, UniProt P05106+P06756); assay: In Vitro Solid Phase Purified αvβ3 Binding Assay (vitronectin/αvβ3); settings: vitronectin binding to immobilized purified human αvβ3, mean ± spread
T2 construct: purchased Chemicon International Inc., Temecula, Calif
Protocol: In Vitro Solid Phase Purified αvβ3 Binding Assay
as §1

GP IIb/IIIa = GP IIb/IIIa (Homo sapiens, UniProt P05106+P08514); assay: In Vitro Solid Phase Purified GP IIb/IIIa Binding Assay (biotinylated fibrinogen); settings: biotinylated fibrinogen binding to immobilized purified GP IIb/IIIa, mean ± spread
Protocol: In Vitro Solid Phase Purified GP IIb/IIIa Binding Assay
The plate was covered and incubated overnight at 4° C. The GP IIb/IIIa solution was discarded and 150 μL of 5% BSA was added and incubated at RT for 1-3 h. The plate was washed extensively with modified Tyrodes buffer. Biotinylated fibrinogen (25 μL/well) at 2× final concentration was added to the wells that contain the test compounds (25 μL/well). The plate was covered and incubated at RT for 2-4 h. Twenty minutes prior to incubation completion, one drop of Reagent A (VectaStain ABC Horseradish Peroxidase kit, Vector Laboratories, Inc.) and one drop Reagent B were added with mixing to 5 mL modified Tyrodes buffer mix and let stand. The ligand solution was discarded and the plate washed (5×200 μL/well) with modified Tyrodes buffer. […] The Vecta Stain solution was discarded and the wells washed (5×200 μL/well) with modified Tyrodes buffer. Developing buffer (10 mL of 50 mM citrate/phosphate buffer @ pH 5.3, 6 mg o-phenylenediamine, 6 μL 30% H2O2; 50 μL/well) was added and incubated at RT for 3-5 min and then 2 N H2SO4 (50 μL/well) was added.

Sequence of GP IIb/IIIa (P08514 32-887 limits assumed): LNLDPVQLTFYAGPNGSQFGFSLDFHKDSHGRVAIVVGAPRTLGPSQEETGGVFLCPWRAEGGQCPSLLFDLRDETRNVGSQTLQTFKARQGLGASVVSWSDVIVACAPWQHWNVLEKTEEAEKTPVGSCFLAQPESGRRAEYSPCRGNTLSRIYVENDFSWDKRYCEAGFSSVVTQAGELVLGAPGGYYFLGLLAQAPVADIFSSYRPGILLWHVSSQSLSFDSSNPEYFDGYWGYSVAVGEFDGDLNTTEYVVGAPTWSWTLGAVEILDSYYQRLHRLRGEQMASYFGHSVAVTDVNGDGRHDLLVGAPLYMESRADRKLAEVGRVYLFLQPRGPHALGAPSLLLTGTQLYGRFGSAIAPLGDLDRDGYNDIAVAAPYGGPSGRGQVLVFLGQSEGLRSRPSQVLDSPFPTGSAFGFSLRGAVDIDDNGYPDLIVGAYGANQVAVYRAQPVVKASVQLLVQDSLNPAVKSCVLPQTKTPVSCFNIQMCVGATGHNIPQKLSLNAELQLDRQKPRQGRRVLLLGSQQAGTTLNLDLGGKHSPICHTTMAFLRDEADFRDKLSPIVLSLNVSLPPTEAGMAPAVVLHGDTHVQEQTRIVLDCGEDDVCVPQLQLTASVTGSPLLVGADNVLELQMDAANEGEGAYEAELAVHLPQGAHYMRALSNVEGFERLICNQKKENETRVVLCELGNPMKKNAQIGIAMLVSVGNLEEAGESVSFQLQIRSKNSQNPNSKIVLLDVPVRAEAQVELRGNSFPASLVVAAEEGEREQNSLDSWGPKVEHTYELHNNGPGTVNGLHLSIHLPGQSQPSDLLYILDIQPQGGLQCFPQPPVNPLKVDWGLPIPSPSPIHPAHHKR
Sequence of GP IIb/IIIa (P08514 891-1039 partner limits assumed): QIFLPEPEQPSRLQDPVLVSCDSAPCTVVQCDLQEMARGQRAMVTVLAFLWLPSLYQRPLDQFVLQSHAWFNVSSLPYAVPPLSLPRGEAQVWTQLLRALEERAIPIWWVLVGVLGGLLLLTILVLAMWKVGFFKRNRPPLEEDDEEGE
Sequence of GP IIb/IIIa (P05106 27-788): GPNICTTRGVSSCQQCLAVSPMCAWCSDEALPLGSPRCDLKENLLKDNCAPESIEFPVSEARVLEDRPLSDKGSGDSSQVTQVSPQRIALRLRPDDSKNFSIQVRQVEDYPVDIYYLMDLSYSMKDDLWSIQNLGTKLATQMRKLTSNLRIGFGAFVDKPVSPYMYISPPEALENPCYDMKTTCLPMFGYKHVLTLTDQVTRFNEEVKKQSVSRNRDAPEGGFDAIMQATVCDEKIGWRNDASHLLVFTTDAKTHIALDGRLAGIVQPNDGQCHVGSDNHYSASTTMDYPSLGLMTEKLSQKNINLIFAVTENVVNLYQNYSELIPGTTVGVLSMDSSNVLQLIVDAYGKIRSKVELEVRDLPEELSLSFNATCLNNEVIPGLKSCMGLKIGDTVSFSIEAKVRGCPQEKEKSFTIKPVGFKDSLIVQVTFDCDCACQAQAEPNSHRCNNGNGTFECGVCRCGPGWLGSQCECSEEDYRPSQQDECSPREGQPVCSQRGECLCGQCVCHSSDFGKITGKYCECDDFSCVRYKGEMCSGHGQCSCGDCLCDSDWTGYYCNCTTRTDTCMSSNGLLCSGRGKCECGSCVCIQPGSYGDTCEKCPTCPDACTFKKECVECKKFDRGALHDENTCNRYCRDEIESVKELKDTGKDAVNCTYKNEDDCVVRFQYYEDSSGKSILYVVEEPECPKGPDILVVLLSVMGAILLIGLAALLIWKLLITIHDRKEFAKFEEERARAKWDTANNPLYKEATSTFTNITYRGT
T1 sequence (P06756 31-889 limits assumed): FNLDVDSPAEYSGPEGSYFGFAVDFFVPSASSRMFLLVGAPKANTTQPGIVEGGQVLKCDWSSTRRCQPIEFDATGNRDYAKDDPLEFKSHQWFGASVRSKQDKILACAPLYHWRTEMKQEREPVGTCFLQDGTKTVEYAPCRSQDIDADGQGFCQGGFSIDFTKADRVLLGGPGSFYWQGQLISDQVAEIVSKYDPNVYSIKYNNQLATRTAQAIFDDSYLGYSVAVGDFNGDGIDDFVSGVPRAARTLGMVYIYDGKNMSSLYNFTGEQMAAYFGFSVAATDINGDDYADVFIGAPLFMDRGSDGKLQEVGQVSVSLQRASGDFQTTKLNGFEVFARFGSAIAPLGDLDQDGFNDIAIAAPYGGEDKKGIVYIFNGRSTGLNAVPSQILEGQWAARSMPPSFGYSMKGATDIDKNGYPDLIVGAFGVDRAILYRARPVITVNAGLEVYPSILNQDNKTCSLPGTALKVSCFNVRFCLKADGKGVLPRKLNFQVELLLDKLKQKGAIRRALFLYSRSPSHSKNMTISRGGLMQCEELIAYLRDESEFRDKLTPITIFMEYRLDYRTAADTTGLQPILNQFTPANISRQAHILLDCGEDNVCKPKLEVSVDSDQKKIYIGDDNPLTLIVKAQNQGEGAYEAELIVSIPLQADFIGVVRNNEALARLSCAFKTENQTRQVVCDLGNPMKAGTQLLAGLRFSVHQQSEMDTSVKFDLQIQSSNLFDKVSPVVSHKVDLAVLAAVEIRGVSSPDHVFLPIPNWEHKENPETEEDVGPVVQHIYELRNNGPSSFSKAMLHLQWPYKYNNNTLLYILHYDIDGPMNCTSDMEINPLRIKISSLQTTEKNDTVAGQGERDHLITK
T1 sequence (P06756 891-1048 partner limits assumed): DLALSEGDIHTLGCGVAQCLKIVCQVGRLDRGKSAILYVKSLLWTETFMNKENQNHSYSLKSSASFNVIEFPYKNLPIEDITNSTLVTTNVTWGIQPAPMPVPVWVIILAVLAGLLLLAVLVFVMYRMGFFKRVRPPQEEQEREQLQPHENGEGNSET
T1 sequence (P18084 24-799): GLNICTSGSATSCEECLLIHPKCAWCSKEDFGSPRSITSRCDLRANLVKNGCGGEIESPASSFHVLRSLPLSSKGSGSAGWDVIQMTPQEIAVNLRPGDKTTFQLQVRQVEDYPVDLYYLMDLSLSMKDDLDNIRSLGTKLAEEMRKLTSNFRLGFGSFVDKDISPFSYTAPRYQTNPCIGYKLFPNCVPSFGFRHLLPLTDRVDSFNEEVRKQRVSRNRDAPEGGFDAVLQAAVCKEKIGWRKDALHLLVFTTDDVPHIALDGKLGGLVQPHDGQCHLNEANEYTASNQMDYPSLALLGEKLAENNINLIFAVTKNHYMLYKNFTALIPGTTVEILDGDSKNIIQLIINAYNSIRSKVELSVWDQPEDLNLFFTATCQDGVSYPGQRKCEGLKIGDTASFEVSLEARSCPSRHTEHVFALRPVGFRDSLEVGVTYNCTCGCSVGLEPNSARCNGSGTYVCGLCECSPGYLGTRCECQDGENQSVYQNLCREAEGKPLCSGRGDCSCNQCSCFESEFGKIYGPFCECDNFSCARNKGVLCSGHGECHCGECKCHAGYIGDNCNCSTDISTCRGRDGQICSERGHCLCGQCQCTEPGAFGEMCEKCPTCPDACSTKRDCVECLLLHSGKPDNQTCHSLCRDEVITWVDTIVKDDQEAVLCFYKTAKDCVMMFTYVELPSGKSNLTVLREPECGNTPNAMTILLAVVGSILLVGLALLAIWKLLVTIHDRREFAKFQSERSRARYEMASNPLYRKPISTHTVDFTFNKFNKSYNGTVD
T2 sequence (P06756 31-889 limits assumed): as the sequence (P06756 31-889 limits assumed) above
T2 sequence (P06756 891-1048 partner limits assumed): as the sequence (P06756 891-1048 partner limits assumed) above
T2 sequence (P05106 27-788): as the sequence (P05106 27-788) above

| IC50 (human purified αVβ5; read-out: αvβ5 IC50) | IC50 (Human αvβ3; read-out: αvβ3IC50) | IC50 (GP IIb/IIIa; read-out: αIIbβ3 IC50) | SMILES | IC50 (human purified αVβ5; αvβ5 IC50 (uM)) | IC50 (Human αvβ3; αvβ3IC50 (uM)) | IC50 (GP IIb/IIIa; αIIbβ3 IC50 (uM)) |
| --- | --- | --- | --- | --- | --- | --- |
| 0.841 ± 0.405 µM | 0.0213 ± 0.0019 µM | 5.31 µM | COc1ccc(C(CCC2CCN(C(=O)CCc3ccc4c(n3)NCCC4)CC2)CC(=O)O)cn1 (single isomer, unassigned) [Cpd 21a, 6-methoxy-β-[2-[1-[1-oxo-3-(5,6,7,8-tetrahydro-1,8-naphthyridin-2-yl)propyl]-4-piperidinyl]ethyl]-3-pyridinepropanoic acid] |  |  |  |
| 0.81 ± 0.104 µM | 0.326 ± 0.0894 µM |  | O=C(O)CC(CC1CCN(C(=O)CCc2ccc3c(n2)NCCC3)CC1)c1ccc2ccccc2c1 (single isomer, unassigned) [Cpd 56b, 3-Naphthalen-2-yl-4-[1-(3-5,6,7,8-tetrahydro-[1,8]naphthyridin-2-yl-propionyl)-piperidin-4-yl]-butyric acid] |  |  |  |

The remaining lines, values behind:

| SMILES | IC50 (human purified αVβ5; read-out: αvβ5 IC50) | IC50 (Human αvβ3; read-out: αvβ3IC50) | IC50 (GP IIb/IIIa; read-out: αIIbβ3 IC50) | IC50 (human purified αVβ5; αvβ5 IC50 (uM)) | IC50 (Human αvβ3; αvβ3IC50 (uM)) | IC50 (GP IIb/IIIa; αIIbβ3 IC50 (uM)) |
| --- | --- | --- | --- | --- | --- | --- |
| O=C(O)CC(CC1CCN(C(=O)CCc2ccc3c(n2)NCCC3)CC1)c1cnc2c(c1)CCCC2 (racemic) [Cpd 57, 5,6,7,8-tetrahydro-β-[[1-[1-oxo-3-(5,6,7,8-tetrahydro-1,8-naphthyridin-2-yl)propyl]-4-piperidinyl]methyl]-3-quinolinepropanoic acid] |  |  |  | 0.0109 ± 0.0042 µM | 0.0016 ± 0.0007 µM | 3.04 ± 0.55 µM |
| COc1cccc(C(CC(=O)O)CC2CCN(C(=O)CCc3ccc4c(n3)NCCC4)CC2)c1 (racemic) [Cpd 59] | 0.0096 ± 0.0038 µM | 0.0026 ± 0.0014 µM | 7.81 ± 4.67 µM |  |  |  |
| COc1ccc(C(CC(=O)O)CC2CCN(C(=O)CCc3ccc4c(n3)NCCC4)CC2)cc1 (racemic) [Cpd 60] | 0.0309 ± 0.0006 µM | 0.001 ± 0.0008 µM | 4.53 ± 2.47 µM |  |  |  |
| O=C(O)CC(CC1CCN(C(=O)CCc2ccc3c(n2)NCCC3)CC1)C1CCOC1 (racemic) [Cpd 62] | 0.17 ± 0.081 µM | 0.09 ± 0.002 µM | > 50 µM |  |  |  |
| O=C(O)CC(CC1CCN(C(=O)CCc2ccc3c(n2)NCCC3)CC1)c1cccs1 (racemic) [Cpd 63] | 0.007 ± 0.0008 µM | 0.0018 ± 0.0008 µM | 10.2 ± 6.41 µM |  |  |  |
| NC(=O)CC(CC1CCN(C(=O)CCc2ccc3c(n2)NCCC3)CC1)c1cccc(F)c1 (racemic) [Cpd 64, 3-(3-Fluoro-phenyl)-4-[1-(3-5,6,7,8-tetrahydro-[1,8]naphthyridin-2-yl-propionyl)-piperidin-4-yl]-butyramide] | 0.147 ± 0.0847 µM | 0.0615 ± 0.0055 µM | > 50 µM |  |  |  |
| O=C(O)CC(CC1CCN(C(=O)CCc2ccc3c(n2)NCCC3)CC1)c1ccc2c(c1)OCCO2 (racemic) [Cpd 65] | 0.0346 ± 0.0002 µM | 0.0008 µM | 3.84 µM |  |  |  |
| CSc1cccc(C(CC(=O)O)CC2CCN(C(=O)CCc3ccc4c(n3)NCCC4)CC2)c1 (racemic) [Cpd 66] | 0.0103 ± 0.0014 µM | 0.0012 ± 0.0001 µM | 28.3 µM |  |  |  |
| CN1CC(C(CC(=O)O)CC2CCN(C(=O)CCc3ccc4c(n3)NCCC4)CC2)Cc2ccccc21 (racemic) [Cpd 67, N-Methyl-1,2,3,4-tetrahydro-β-[[1-[1-oxo-3-(5,6,7,8-tetrahydro-1,8-naphthyridin-2-yl)propyl]-4-piperidinyl]methyl]-3-quinolinepropanoic acid] |  |  | 7.82 µM | 0.176 ± 0.035 µM | 0.048 ± 0.003 µM |  |
| CN(C)c1cccc(C(CC(=O)O)CC2CCN(C(=O)CCc3ccc4c(n3)NCCC4)CC2)c1 (racemic) [Cpd 75] | 0.0419 ± 0.0052 µM | 0.0053 ± 0.001 µM | > 50 µM |  |  |  |
| COc1cc(C(CC(=O)O)CC2CCN(C(=O)CCc3ccc4c(n3)NCCC4)CC2)ccc1O (racemic) [Cpd 76, 3-(4-Hydroxy-3-methoxy-phenyl)-4-[1-(3-5,6,7,8-tetrahydro-[1,8]naphthyridin-2-yl-propionyl)-piperidin-4-yl]-butyric acid] | 0.0397 ± 0.0121 µM | 0.0018 ± 0.0003 µM | 5.38 µM |  |  |  |
| O=C(O)CC(CC1CCN(C(=O)c2cccc(NC3=NCCN3)c2)CC1)c1cccc(F)c1 (racemic) [Cpd 77] | 0.789 ± 0.065 µM | 0.138 µM |  |  |  |  |
| CCNc1cccc(C(CC(=O)O)CC2CCN(C(=O)CCc3ccc4c(n3)NCCC4)CC2)c1 (racemic) [Cpd 78, 3-(3-Ethylamino-phenyl)-4-[1-(3-5,6,7,8-tetrahydro-[1,8]naphthyridin-2-yl-propionyl)-piperidin-4-yl]-butyric acid] | 0.026 ± 0.003 µM | 0.0057 ± 0.0001 µM | 24.7 µM |  |  |  |
| CNc1cccc(C(CC(=O)O)CC2CCN(C(=O)CCc3ccc4c(n3)NCCC4)CC2)c1 (racemic) [Cpd 79, 3-(3-Methylamino-phenyl)-4-[1-(3-5,6,7,8-tetrahydro-[1,8]naphthyridin-2-yl-propionyl)-piperidin-4-yl]-butyric acid] | 0.025 ± 0.006 µM | 0.0035 ± 0.0015 µM | 40.2 µM |  |  |  |
| O=C(O)CC(CC1CCN(CCCc2ccc3c(n2)NCCC3)CC1)c1cccc(F)c1 (racemic) [Cpd 81, 3-(3-Fluoro-phenyl)-4-[1-(3-5,6,7,8-tetrahydro-[1,8]naphthyridin-2-yl-propyl]-piperidin-4-yl]-butyric acid] | 0.0101 ± 0.0017 µM | 0.0067 ± 0.0002 µM | 22.7 µM |  |  |  |
| O=C(O)CC(C1CCN(C(=O)CCCc2ccc3c(n2)NCCC3)CC1)C1CNc2ccccc2C1 (single isomer, unassigned) [Cpd 5-3, 1,2,3,4-Tetrahydro-β-[1-[1-oxo-4-(5,6,7,8-tetrahydro-1,8-naphthyridin-2-yl)butyl]-4-piperidinyl]-3-quinolinepropanoic acid] | > 5 µM |  |  |  | 0.161 µM |  |
| O=C(O)CC(C1CCN(C(=O)CCCc2ccc3c(n2)NCCC3)CC1)C1CNc2ccccc2C1 (single isomer, unassigned) [Cpd 5-4, 1,2,3,4-Tetrahydro-β-[1-[1-oxo-4-(5,6,7,8-tetrahydro-1,8-naphthyridin-2-yl)butyl]-4-piperidinyl]-3-quinolinepropanoic acid] |  |  | 9.82 µM | 0.162 ± 0.0627 µM | 0.0054 ± 0.0002 µM |  |
| O=C(O)CC(CC1CCN(C(=O)CCc2ccc3c(n2)NCCC3)CC1)C1CNc2ccccc2C1 (single isomer, unassigned) [Cpd 19-1, 1,2,3,4-tetrahydro-β-[[1-[1-oxo-3-(5,6,7,8-tetrahydro-1,8-naphthyridin-2-yl)propyl]-4-piperidinyl]methyl]-3-quinolinepropanoic acid] | 1.12 µM | 0.0367 µM | > 50 µM |  |  |  |
| O=C(O)CC(CC1CCN(C(=O)CCc2ccc3c(n2)NCCC3)CC1)C1CNc2ccccc2C1 (single isomer, unassigned) [Cpd 19-2, 1,2,3,4-tetrahydro-β-[[1-[1-oxo-3-(5,6,7,8-tetrahydro-1,8-naphthyridin-2-yl)propyl]-4-piperidinyl]methyl]-3-quinolinepropanoic acid] | 0.0092 ± 0.0004 µM | 0.0013 ± 0.0001 µM | 12.9 µM |  |  |  |
| O=C(O)CC(CC1CCN(C(=O)CCc2ccc3c(n2)NCCC3)CC1)C1CNc2ccccc2C1 (single isomer, unassigned) [Cpd 19-3, 1,2,3,4-tetrahydro-β-[[1-[1-oxo-3-(5,6,7,8-tetrahydro-1,8-naphthyridin-2-yl)propyl]-4-piperidinyl]methyl]-3-quinolinepropanoic acid] | 1.17 ± 0.02 µM | 0.0447 ± 0.0204 µM |  |  |  |  |
| O=C(O)CC(CC1CCN(C(=O)CCc2ccc3c(n2)NCCC3)CC1)C1CNc2ccccc2C1 (single isomer, unassigned) [Cpd 19-4, 1,2,3,4-tetrahydro-β-[[1-[1-oxo-3-(5,6,7,8-tetrahydro-1,8-naphthyridin-2-yl)propyl]-4-piperidinyl]methyl]-3-quinolinepropanoic acid] | 0.0075 ± 0.0018 µM | 0.0013 ± 0.0007 µM | 4.86 µM |  |  |  |
| O=C(O)CCC1CCN(C(=O)CCc2cccc(NC3=NCCCN3)c2)CC1 [Cpd 2, 1-[1-Oxo-3-[3-[(1,4,5,6-tetrahydro-2-pyrimidinyl)amino]phenyl]propyl]-4-piperidinepropanoic acid] |  | 5.4 µM | 4.78 ± 1.01 µM |  |  |  |
| O=C(O)CC(CCC1CCN(C(=O)CCCNc2ccccn2)CC1)c1cccnc1 (stereo not drawn) [Cpd 9, β-[2-[1-[1-Oxo-4-(2-pyridinylamino)butyl]-4-piperidinyl]ethyl]-3-pyridinepropanoic acid] |  | > 1 µM | 8.51 ± 2.36 µM |  |  |  |
